Several values for one entry are separate records, joined by “and”; a condition that tells them apart may be missing. Equal values may be shown once. Read-outs that look alike come from different tables or passages of the source. Blank lines part the entries; values can stand above or below the compound they belong to.
Tests used:
elastase = assay: Elastase digestion of treated porcine aorta (mass loss, elastin histology); type: biochemical
Experimental: Fresh porcine aorta was cut into approximately 4 mm×4 mm squares and treated with 0.3% tannic acid (TA) (1.76 mM) in 50 mM HEPES […] buffered saline at pH 5.5 for 4 days at room temperature. A control sample was treated in mM Hepes buffered saline at pH5.5. Samples were then rinsed three times (1 hour each) in 100 mL ddH2O at room temperature and lyophilized to record dry weight. Samples (about 15-25 mg dry weight), both control and TA treated, were incubated with 1.0 mL pure elastase (20 units/ml, in 100 mM Tris, 1 mM CaCl2, 0.02% NaN3, pH 7.8 buffer) at 37° C. for 48 hours with orbital shaking at 650 rpm. Samples were then centrifuged (10000 rpm, 10 min. 4° C.) and supernatants retained to assess enzyme activity. Tissue samples were again rinsed three times (1 hour each) in 100 mL ddH2O at room temperature and lyophilized to record dry weight after elastase, and the percent of digested tissue was calculated. Elastin degradation was assessed by measuring mass loss (dry weight before and after elastase contact) and by preparation of histological slides stained with an elastin-specific stain (Voerhoff van Gieson stain).

pure aortic elastin = assay: Kinetics of binding of tannic acid to pure aortic elastin; parameters: species or system porcine
Experimental: Ascending porcine aorta was collected fresh at a slaughterhouse and transported to the laboratory on ice. After cleaning fat and adherent tissues, aorta was cut into 2×4 mm strips and thoroughly rinsed in cold saline. Aortic elastin was purified by a sequence of extractions. Specifically, aortic strips were suspended in 100 mM sodium hydroxide (60 strips in 100 mL) and incubated for 14 hours at 37° C. with collagenase (0.5 units/mg wet tissue) in 50 mM Tris buffer, 10 mM calcium chloride, pH 8.0. The collagenase preparation was pre-adsorbed with elastin fibers to remove residual elastolytic activities. The final digestion step completely removed residual collagen, leaving pure aortic elastin.
The pure aortic elastin strips were placed in 2 mL microfuge tubes and suspended in 1.5 mL of an 8 mg % TA solution prepared in a 50 mM disodium hydrogen phosphate, 0.9% sodium chloride buffer, pH 5.5. A second group consisted of pure aortic elastin suspended in a solution containing 8 mg % TA and 16 mg % Glut in the same buffer. As controls, TA solution and the mixture of TA and Glut were incubated without elastin samples. Samples were incubated at room temperature and at defined time intervals (0, 20, 40, 60, 120, 360 minutes and 24 hours), samples were retrieved and analyzed for TA content in solution. Specifically, samples were mixed with a tungstate/phosphomolybdate reagent followed by addition of a saturated sodium carbonate solution and ddH2O. After 10 minutes at room temperature, OD at 760 nm was measured in a microplate spectrophotometer. Standard curves were constructed with TA in the range of 0-8 mg % and with TA (0-8 mg %) in mixtures with Glut (16 mg % ). Glut interference with the TA color reaction was minimal (no statistical differences found for all data points). Finally, the elastin strops were rinsed in ddH2O and lyophilized. The amount of TA bound to pure aortic elastin was calculated from the differences between initial TA concentration in solution and concentration of TA in solution after incubation with elastin strops and were expresses as micrograms of TA bound by 1 mg dry elastin. All samples were assayed in triplicate.

Rat skin fibroblasts [1] = system: Rat skin fibroblasts
Experimental: (§1) Fresh porcine aorta was treated with Glut, Glut/TA, or Glut/PGG, as described above. After thorough rinsing (3x, 1 hr. each, 100 mL ddH2O), samples were orbitally shaken at 120 rpm 37° C. for 14 days in a PBS/azide buffer, pH7.4, for extraction of soluble, cytotoxic compounds (50 mL per 6 tissues samples, each 4 mm×4 mm).
(§2) Rat skin fibroblasts were seeded onto 24-well plates (50,000 cells/well) in 1 mL DMEM supplemented with 10% FBS and 1% penicillin-streptomycin. Cells were maintained in a humidified incubator at 37° C. with 10% CO2. After 24 hours, the media was removed and replaced with one of the PBS/azide solutions diluted 10-fold in fresh media. As control, a sample was held in buffer alone (negative control) and also in a 70% ethanol solution (positive control). Effectively, 100 μL of the ‘test solution’ was added to 900 μL of media for each well (except in the case of ethanol, in which no media was added). The cells were incubated with these solutions for 2 hours and then rinsed with 1 mL PBS. Viability of the cells was then assessed using a qualitative LIVE/DEAD® staining fluorescent stain. In addition, a quantitative measurement, MTS, was used to measure the activity of cell enzymes. Specifically, the reagent was diluted 5-fold in media, then applied to the cells for 90 minutes. A portion of the resulting solutions ([…]) was transferred to a 96-well plate and read at an absorbance of 490 nm. Samples were blanked to a well containing media and MTS reagent with no cells.

Rat skin fibroblasts [2] = system: Rat skin fibroblasts; remark: listed apart in the source
Experimental: as §1, §2
Micrographs of cells introduced to LIVE/DEAD® were taken 45 minutes after exposure. Results are shown in FIGS. 6A-6E, in which living cells appear as light spots on the dark background, and dead cells appear as darker gray spots.

porcine aorta [3] = assay: Recoil of aortic rings by opening angle measurement; settings: aortic rings cut radially, relaxed 15 minutes; n = 5
Experimental: Fresh porcine aorta was cut across the diameter into continuous rings approximately 1 cm in height as illustrated in FIG. 5A and treated with glutaraldehyde (Glut treatment). For this treatment, aortic ring samples were first fixed with 0.6% glutaraldehyde in 50 mM Hepes buffered saline, pH 7.4, overnight at room temperatures, followed by 0.2% glutaraldehyde in the same buffer for 7 days at room temperatures.
A portion of the Glut-treated rings were then treated with 0.3% pentagalloylglucose (PGG). PGG was first prepared from TA as outlined by Hagerman, et al. (Hagerman , Zhao Y., and Johanson J., “Methods for determination of condensed and hydrolyzable tannins,” Shahadi, F., Ed., Antinutrients and Phytochemicals in Foods, Wash., D.C., American Chemical Society, p. 209-222 (1997)). Specifically, TA was methanolyzed using a solution of methanol and acetate buffer. After methanolysis, the methanol was removed by rotary evaporation and replaced with ddH2O. A series of separate extractions involving diethyl ether and ethyl acetate, along with rinses of dilute methanol and ddH2O was performed to purify the PGG. The resulting precipitate was centrifuged and lyophilized to form a solid. […]
Samples were then tested for ability to recoil using opening angle measurements. […] Using these lines, the opening angles of the aortic rings were calculated. […]

porcine aorta [4] = assay: Tensile stress/strain test, elastic modulus of aorta; settings: slope of stress-strain curve between 0 and 5% strain; n = 4
Experimental: To evaluate mechanical properties, aorta was cut to form dumbbell shapes approximately 40 mm in length, approximately 10 mm wide at each end, and approximately 5 mm wide at the center, with the long axis of the dumbbell shape being parallel to the circumferential direction of the aorta. Tensile properties of the samples were tested using standard stress/strain analysis on a Synergie 100 testing apparatus (MTS Systems Corporation, Eden Prairie, Minn.) operated at a constant uniaxial velocity of 0.2 mm/sec using a 10-Newton load cell to determine elastic modulus of the samples. Elastic modulus was calculated as the slope of the stress-strain curve between 0 and 5% strain.

[5] = Long-term binding of tannins to aortic tissue (extraction from explanted aorta); type: in vivo, Sprague-Dawley rats
Experimental: (§3) Adult male Sprague-Dawley rats were placed under general anesthesia (2% to 3% isoflurane), allowing for a midline incision along the abdomen in order to expose the infrarenal abdominal aorta. Once exposed, the abdominal aorta was treated with 0.03% PGG solution in saline for 15 minutes using a strip (1.5 cm×0.5 cm) of presoaked 8-ply sterile cotton gauze. The area was then briefly rinsed with saline, allowing induction of chemical injury (0.5 M CaCl2, delivered with gauze for 15 minutes). As controls, rat aortas were treated with physiological saline for 15 minutes, rinsed, and then subjected to calcium chloride. After treating with CaCl2, the gauze was removed and the abdominal cavity was closed with subcutaneous suture, followed by surgical staples. The rats were anesthetized after 28 days, at which point the abdominal aorta was again exposed. Digital photographs (before PGG application at day 0, as well as after 28 days) were used to measure percent increases in diameter after the 28 day period for each rat. Aortic tissue was collected for analysis. Vessels were also analyzed to determine the long-term binding of the tannins with the tissue. Tannins were extracted from explanted aorta immediately after treatment (labeled PGG in situ on FIG. 11) and measured levels were compared to those obtained from aorta explanted 28 days following PGG treatment (labeled PGG in vivo on FIG. 11).

rat abdominal aorta = assay: CaCl2 chemical injury aneurysm model on rat abdominal aorta; type: in vivo, Sprague-Dawley rats
Description: In vivo use of the disclosed agents was examined. The aneurysm model used was based on the perivascular application of a high concentration calcium chloride (CaCl2) solution, a method originally used to induce aneurysms in rabbit carotid arteries (see, Gertz SD, Kurgan A, Eisenberg D. J Clin Invest 1988;81(3):649-656.) and has more recently been used on abdominal aorta of rodents. (See, e.g., Freestone T., et al., Arterioscler Thromb Vasc Biol 1995;15(8):1145-1151. Freestone T., et al., Arterioscler Thromb Vasc Biol 1997;17(1):10-17. Tambiah J., et al. Br J Surg 2001;88(7):935-940.) This model results in a localized mild insult to the arterial tissue. In most studies, a significant increase in aortic diameter (indicative of aneurysm formation) was observed after 3 to 6 weeks post-injury. For this example, the CaCl2-based chemical injury was performed on rat aorta.
as §3, with “analysis.” for “analysis. Vessels were also analyzed to determine the long-term binding of the tannins with the tissue. Tannins were extracted from explanted aorta immediately after treatment (labeled PGG in situ on FIG. 11) and measured levels were compared to those obtained from aorta explanted 28 days following PGG treatment (labeled PGG in vivo on FIG. 11).”
Following superficial examination of the aortic segments, the segments were analyzed via desmosine analysis for elastin content. […]

TA remaining in solution, of initial TA (pure aortic elastin; after 6 hours incubation with elastin): 10% | TA remaining in solution, of initial TA (pure aortic elastin; at 24 hours incubation with elastin): less than 3.5% | TA bound at leveling off (pure aortic elastin; rapid binding within the first 6 hours, then plateau): about 3 mg of TA/mg dry elastin | decrease of amount of TA in solution (pure aortic elastin; within 1 hour of incubation with elastin, 8 mg % TA, pH 5.5): about 50%
Compound: O=C(OC[C@H]1O[C@@H](OC(=O)c2cc(O)c(O)c(OC(=O)c3cc(O)c(O)c(O)c3)c2)[C@H](OC(=O)c2cc(O)c(O)c(OC(=O)c3cc(O)c(O)c(O)c3)c2)[C@@H](OC(=O)c2cc(O)c(O)c(OC(=O)c3cc(O)c(O)c(O)c3)c2)[C@@H]1OC(=O)c1cc(O)c(O)c(OC(=O)c2cc(O)c(O)c(O)c2)c1)c1cc(O)c(O)c(OC(=O)c2cc(O)c(O)c(O)c2)c1 [TA, tannic acid]
elastin fibers in histology (Voerhoff van Gieson stain) after elastase (elastase; 0.3% TA pre-treated aorta after elastase): fully preserved | mass lost after elastase (percent of digested tissue) (elastase; 0.3% TA pre-treatment 4 days pH 5.5, elastase 20 units/ml, 37° C., 48 hours, n=6): 4-5% and 4.33%

Compound: CCO [EtOH, ethanol]
Viability (MTS assay) (Rat skin fibroblasts [1]; 14 day tissue extract diluted 10-fold, 2 hours exposure, absorbance at 490 nm, n = 3): 0.03 | cell viability after exposure to extracts (Rat skin fibroblasts [2]): essentially no viable cells | Viability (live/dead assay) (Rat skin fibroblasts [2]; 14 day tissue extract diluted 10-fold in media, 2 hours exposure): 0%

Compound: O=CCCCC=O [Glut, glutaraldehyde]
Viability (MTS assay) (Rat skin fibroblasts [1]; rat, 2 h): 1.04 | Mean opening angle (porcine aorta [3]): 35.9 degrees | Mean Elastic Modulus (porcine aorta [4]): 1.28 kPa | cell viability after exposure to extracts (Rat skin fibroblasts [2]): remained viable | Viability (live/dead assay) (Rat skin fibroblasts [2]; rat, 2 h): 100%

Compound: O=C(OC[C@H]1O[C@@H](OC(=O)c2cc(O)c(O)c(O)c2)[C@H](OC(=O)c2cc(O)c(O)c(O)c2)[C@@H](OC(=O)c2cc(O)c(O)c(O)c2)[C@@H]1OC(=O)c1cc(O)c(O)c(O)c1)c1cc(O)c(O)c(O)c1 [PGG, pentagalloylglucose]
cytotoxicity comparison (Rat skin fibroblasts [1]): less cytotoxic than TA | level of tannins extracted from tissue ([5]; explanted 28 days following PGG treatment (PGG in vivo)): about 1.3 μg PGG/mg dry tissue | level of tannins extracted from tissue ([5]; explanted immediately after treatment (PGG in situ)): about 1.8 μg PGG/mg dry tissue | percentage change in diameter of aortic segments (rat abdominal aorta; 0.03% PGG perivascular 15 minutes before CaCl2, 28 days): less than 10% | increase in diameter of aortic segments (rat abdominal aorta; 0.03% PGG perivascular 15 minutes before CaCl2, 28 days, n=12 per group): about 100 μm | desmosine content (elastin content) (rat abdominal aorta; aortic segments 28 days post-injury): about 1350 pmol desmosine/mg protein

From patent US8435553B2, “Elastin stabilization of connective tissue” (Clemson University Research Foundation (CURF), priority 2005, dated 2013)
